Data set [1] in a line: MTT assay for cell viability. Format: cell-based, mouse. To be noted: mouse, RAW264.7 macrophage cells, 24 h, RAW264.7 cells. On the procedure: The RAW 264.7 mouse macrophage cell line was obtained from the China Cell Line Bank (Beijing, China). Cells were cultured in complete medium (DMEM supplemented with 10% heat-inactivated FBS, 3 mM glutamine and antibiotics (100 U/mL penicillin and 100 U/mL streptomycin)) at 37 °C in a humidified incubator containing 5% CO2 and 95% air. […]
Cell viability studies induced by synthesised compounds were evaluated by 3-(4,5-dimethylthiazol-2-yl)-2,5-diphenyltetrazolium bromide (MTT) assay. RAW264.7 macrophages were seeded in 96-well plates at a density of 5 × 10^5 cells/mL in complete medium and incubated for 24 h (100 µL/well). Then the cells were treated with different concentrations of synthesised compounds for 24 h. 150 µL MTT (5 g/L in PBS) was added to each well and the cells were further incubated for 4 h. The supernatant was removed and the cells were lysed with 150 µL/well DMSO. The optical density was measured at 570 nm on a microplate reader (Thermo Scientific, MA, USA).
Background: Formazan colour is commonly taken as a measure of viable cells.

Data set [2] relates to carrageenan-induced paw oedema. Description: Carrageenan-induced paw oedema model. To be noted: 25 mg/kg p.o., n = 4. The data set is classed as in vivo, rats. From the text:
The animal procedures were in strict accordance with the National Institutes of Healthy Guidelines for the Care and Use of Laboratory Animals (NIH Publication No. 85-23, revised 1996) and were approved by the Institutional Animal Care and Utilisation Committee of Yanbian University. Male albino rats weighing 280–300 gwere obtained from Animal Department of Yanbian University . They were kept in the animal house under standard condition of light and temperature with free access to food and water. The animals were randomly divided into five groups (control, D1, 6p, ibuprofen and celecoxib group) The groups with D1, 6p, ibuprofen and celecoxib were administered oral administration (p.o.) 25 mg/kg in a vehicle of 0.5% methylcellulose, respectively. The negative control group was treated with the same vehicle (0.5% methylcellulose). A solution of carrageenan (0.1 ml, 1.0% w/v in 0.9% of normal saline) was injected into the subplanter region of the left hind paw under light ether anaesthesia 1 h after oral administration (p.o.) of the test compound (at a dose level of 25 mg/kg body weight). The paw volume was measured at hourly interval for 5 h (0, 1, 3 and 5 h) and the percent inhibition of oedema was calculated using formula: %Inhibition=(Vt−Vo)control−(Vt−Vo)tested compound /(Vt−Vo)control×100 where, • Vo = volume of oedema at zero time interval. • Vt = volume of oedema at specific time interval.
Background: The carrageenan paw model is a standard test of acute inflammation.

The viability is a read-out of living cells in per cent, often relative to untreated cells. Low readings indicate more harm to the cells, high ones less harm to the cells. By melting point is commonly meant the temperature of the solid-liquid transition. Regarding `CCCCn1c(=O)c2nnc(C(N)=O)n2c2ccccc21` [6a, 5-butyl-4-oxo-4,5-dihydro-[1,2, 4]triazolo[4,3-a]quinoxaline-1-carboxamide], the melting point fell in the range of 262 to 264 °C. This compound displayed a viability at 24 h, 30 µM in data set [1] of 92.3 ± 1.53%.
The corresponding values for `CCCCCn1c(=O)c2nnc(C(N)=O)n2c2ccccc21` [6b, 5-pentyl-4-oxo-4,5-dihydro-[1,2, 4]triazolo[4,3-a]quinoxaline-1-carboxamide] are 232 to 234 °C and 98 ± 1.1%.
The matching figures for `CCCCCCn1c(=O)c2nnc(C(N)=O)n2c2ccccc21` [6c, 5-hexyl-4-oxo-4,5-dihydro-[1,2, 4]triazolo[4,3-a]quinoxaline-1-carboxamide]: 239 to 241 °C and 99.11 ± 0.69%.
The matching figures for `CCCCCCCn1c(=O)c2nnc(C(N)=O)n2c2ccccc21` [6d, 5-heptyl-4-oxo-4,5-dihydro-[1,2, 4]triazolo[4,3-a]quinoxaline-1-carboxamide]: 231 to 233 °C and 81 ± 1.1%.
In turn, `CCCCCCCCCn1c(=O)c2nnc(C(N)=O)n2c2ccccc21` [6f, 5-nonyl-4-oxo-4,5-dihydro-[1,2, 4]triazolo[4,3-a]quinoxaline-1-carboxamide] returned a melting point of 236 to 238 °C. In data set [1], the viability at 24 h, 10 µM was found to be 99.2 ± 1.65% and the viability at 24 h, 30 µM was 60 ± 3.4%.
Consider `NC(=O)c1nnc2c(=O)n(Cc3ccccc3)c3ccccc3n12` [6g, 5-benzyl-4-oxo-4,5-dihydro-[1,2, 4]triazolo[4,3-a]quinoxaline-1-carboxamide], for which the melting point fell in the range of 268 to 270 °C. In data set [1], this compound returned a viability at 24 h, 30 µM of 85 ± 1%.
As for `NC(=O)c1nnc2c(=O)n(Cc3ccccc3F)c3ccccc3n12` [6h, 5-(2-fluorobenzyl)-4-oxo-4,5-dihydro-[1,2, 4]triazolo[4,3-a]quinoxaline-1-carboxamide], the melting point was 273 to 275 °C. For the same compound, in data set [1], the viability at 24 h, 10 µM worked out at 98.5 ± 1.76% and the viability at 24 h, 30 µM was determined as 66.7 ± 1.33%.
The corresponding values for `NC(=O)c1nnc2c(=O)n(Cc3cccc(F)c3)c3ccccc3n12` [6i, 5–(3-fluorobenzyl)-4-oxo-4,5-dihydro-[1,2, 4]triazolo[4,3-a]quinoxaline-1-carboxamide] are 276 to 278 °C, 99.5 ± 4.17% and 59.3 ± 2.52%.
Compound `NC(=O)c1nnc2c(=O)n(Cc3ccc(F)cc3)c3ccccc3n12` [6j, 5-(4-fluorobenzyl)-4-oxo-4,5-dihydro-[1,2, 4]triazolo[4,3-a]quinoxaline-1-carboxamide] had a melting point of 274 to 276 °C. Besides, in data set [1], the viability at 24 h, 10 µM amounted to 73.5 ± 2.27% and the viability at 24 h, 30 µM was 48 ± 3%.
On to `NC(=O)c1nnc2c(=O)n(Cc3ccccc3Cl)c3ccccc3n12` [6k, 5-(2-chlorobenzyl)-4-oxo-4,5-dihydro-[1,2, 4]triazolo[4,3-a]quinoxaline-1-carboxamide], for which the melting point lay in the range of 278 to 280 °C. In data set [1], this compound gave a viability at 24 h, 10 µM of 74.6 ± 1.38% and a viability at 24 h, 30 µM of 46.3 ± 2.89%.
Consider `NC(=O)c1nnc2c(=O)n(Cc3cccc(Cl)c3)c3ccccc3n12` [6l, 5-(3-chlorobenzyl)-4-oxo-4,5-dihydro-[1,2, 4]triazolo[4,3-a]quinoxaline-1-carboxamide], for which the melting point lay within 269 to 271 °C. Also, in data set [1], the viability at 24 h, 10 µM worked out at 87.9 ± 5.18% and the viability at 24 h, 30 µM turned out to be 51.7 ± 2.12%.
The matching figures for `NC(=O)c1nnc2c(=O)n(Cc3ccc(Cl)cc3)c3ccccc3n12` [6m, 5-(4-chlorobenzyl)-4-oxo-4,5-dihydro-[1,2, 4]triazolo[4,3-a]quinoxaline-1-carboxamide]: 282 to 284 °C, 82.2 ± 1.74% and 44.7 ± 3.06%.
Take `COc1cccc(Cn2c(=O)c3nnc(C(N)=O)n3c3ccccc32)c1` [6n, 5-(3-methoxybenzyl)-4-oxo-4,5-dihydro-[1,2, 4]triazolo[4,3-a]quinoxaline-1-carboxamide]: the melting point lay within 266 to 268 °C. Besides, the viability at 24 h, 30 µM in data set [1] was determined as 93.33 ± 0.58%.
As to `COc1ccc(Cn2c(=O)c3nnc(C(N)=O)n3c3ccccc32)cc1` [6o, 5-(4-methoxybenzyl)-4-oxo-4,5-dihydro-[1,2, 4]triazolo[4,3-a]quinoxaline-1-carboamide], the melting point fell in the range of 264 to 266 °C. In data set [1], this compound came in with a viability at 24 h, 30 µM of 80.1 ± 1%.
`NC(=O)c1nnc2c(=O)n(Cc3ccc(Cl)cc3Cl)c3ccccc3n12` [6q, 5-(2,4-dichlorobenzyl)-4-oxo-4,5-dihydro-[1,2, 4]triazolo[4,3-a]quinoxaline-1-carboxamide]: the melting point lay within 266 to 268 °C. In data set [1], this compound showed a viability at 24 h, 10 µM of 84.7 ± 6.49% and a viability at 24 h, 30 µM of 56.7 ± 1.34%.
The compound `NC(=O)c1nnc2c(=O)n(Cc3cccc(C(F)(F)F)c3)c3ccccc3n12` [6r, 5-(3-(Trifluoromethyl)benzyl)-4-oxo-4,5-dihydro-[1,2, 4]triazolo[4,3-a]quinox-aline-1-carboxamide] registered a melting point of 262 to 264 °C. Further, in data set [1], the viability at 24 h, 30 µM is 99.3 ± 0.6%.
`NC(=O)c1nnc2c(=O)n(Cc3ccc([N+](=O)[O-])cc3)c3ccccc3n12` [6s, 5-(4-nitrobenzyl)-4-oxo-4,5-dihydro-[1,2, 4]triazolo[4,3-a]quinoxaline-1-carb-oxamide]: the melting point was 273 to 275 °C. Further, the viability at 24 h, 30 µM in data set [1] was 80.1 ± 1.34%.
With `N#Cc1ccc(Cn2c(=O)c3nnc(C(N)=O)n3c3ccccc32)cc1` [6t, 5-(4-cyanobenzyl)-4-oxo-4,5-dihydro-[1,2, 4]triazolo[4,3-a]quinoxaline-1-carboxamide], the melting point is 298 to 300 °C. For the same compound, the viability at 24 h, 30 µM in data set [1] was determined as 90.3 ± 1.21%.
As to `Cc1ccc(-c2cc(C(F)(F)F)nn2-c2ccc(S(N)(=O)=O)cc2)cc1` [Celecoxib], the “% of oedema inhibition (% mean ± SD)” value in data set [2] (1 h) amounted to 48.09 ± 5.33%; in data set [2] (3 h, 25 mg/kg), 58.34 ± 4.08%; in data set [2] (3 h, listed as celecoxib, 25 mg/kg), 58.34%; in data set [2] (5 h), 41.92 ± 2.05%.
Consider `CC(C)Cc1ccc(C(C)C(=O)O)cc1` (stereo not shown) [Ibuprofen], for which the “% of oedema inhibition (% mean ± SD)” value in data set [2] (1 h) was found to be 31.92 ± 5.76%; in data set [2] (3 h, 25 mg/kg) it was 39.30 ± 4.86%; in data set [2] (3 h, listed as ibuprofen, 25 mg/kg) it was 39.30%; in data set [2] (5 h), 25.29 ± 3.43%.

(Values after PMC6853232, “Discovery and evaluation of novel synthetic 5-alkyl-4-oxo-4,5-dihydro-[1,2,4]triazolo[4,3-a]quinoxaline-1-carbox-amide derivatives as anti-inflammatory agents” (Journal of Enzyme Inhibition and Medicinal Chemistry, 2019).)
